In patent US20080255244A1, “CaM Kinase II Inhibitor Improves Retinoic Acid Therapy and Inhibits the Proliferation of Myeloid Leukemia Cells” (Fred Hutchinson Cancer Research Center, priority 2007, published 2008):
“Also recorded” adds a separate entry of the source.

What was measured:
[1] = system: autophosphorylated CaMKIIγ in TonB210.1 cells; assay: bcr-abl induced CaMKII autophosphorylation in TonB210.1 cells (Western blot); assay type: cell-based; details: TonB210.1 deprived of IL-3 for 24 hours, compound added with doxycycline
K562 cells = assay: K562 proliferation in liquid suspension culture (cell counts); assay type: cell-based, human; details: seeded at 5×10^4 cells/ml; cell counts
Procedure: (A) K562 cells were seeded in liquid suspension culture at 5×10^4 cells/ml in the presence or absence of the indicated concentration of compounds, and cell counts were obtained at the indicated time.
Cell lines. All leukemia cell lines are cultured at 37° in RPMI supplemented with 5% heat-inactivated fetal calf serum.

[2] = system: autophosphorylated CaMKIIγ in HL60 cells; assay: Western blot of CaMKIIγ autophosphorylation in HL60 cells; assay type: cell-based, human; details: phospho-T286/7 antibody, ATRA 1 μM, TPA 0.1 μM
Procedure: (§1) FIG. 7. KN-62 regulates the differentiation of myeloid leukemia cell lines. (A) Wright Giemsa-stained HL-60 cells either (a) uninduced or treated for five days with (b) KN62 or (c) ATRA. (d) CD11b expression in HL-60 cells after five days exposure to KN62 (5 μM) or ATRA (1 μM). (B) Wright-Giemsa stained NB4 cells treated for five days with KN-62 (5 μM) and ATRA as indicated. […] (C) Cd11b expression of NB4 cells treated for five days with the indicated concentrations of RA and/or KN-62. (D) Western blots with the indicated antibodies were performed on HL60 cell lysates following incubation with KN62 for the indicated period of time. (E) Western blots of NB4 cell lysates following a five day incubation with the indicated compounds.
(§2) FIG. 9. Terminal differentiation/apoptosis of myeloid leukemia cells is associated with decreased CaMKIIγ activation. (A) Lysates from the HL60, NB4 and U937 myeloid cell lines treated with ATRA (1 μM) for the indicated period of time were subjected to Western blots. (B) Lysates from the indicated myeloid cell lines treated for five days with the indicated concentration of ATRA were subjected to Western blots. (C) Lysates from HL60 cells treated with TPA (0.1 μM) for the indicated time were subjected to Western blots. (D) Lysates from NB4 cells treated with arsenic trioxide (1 uM) for the indicated time were subjected to Western blots.
(§3) Protein extracts, Western blotting and co-immunoprecipitations. Westerns and co-immunoprecipitations were performed as previously detailed (Si, J., and Collins, S. J., Blood 100:4401-4409 (2002)).
(§4) Antibodies and Western blots. Protein extracts, immunoprecipitations and Western blots were performed as previously detailed (Si J, Collins S J. IL-3-induced enhancement of retinoic acid receptor activity is mediated through Stat5, which physically associates with retinoic acid receptors in an IL-3-dependent manner. Blood 100: 4401-9 (2002)). Antibodies against CaMKI, CaMKIIγ, CaMKIV, c-myc, Stat3, Stat5, calmodulin, as well as the phosphospecific CaMKII (T286, 287) and phosphospecific CaMKI (T177) antibodies were from Santa Cruz Biotechnology. Antibodies against phospho-Stat1 (Ser727), phospho-Stat3 (Ser727 and Tyr 705), phospho-Stat5 (Tyr 694), phospho-p44/42 MAP kinase (Thr202/Tyr 204), p44/42 MAP kinase, phospho-p38 MAP kinase (Thr 180/Tyr 182), phospho-GSK3β (Ser9) were from Cell Signaling Technology. Antibodies against Stat1, GSK3β, β-catenin, PP2Ac, and cyclin D1 were from BD Biosciences.

[3] = system: Stat3 transcriptional activity in K562 cells; assay: Stat3 response element luciferase reporter in K562 cells; assay type: cell-based, human; details: 48 hours of culture
Procedure: FIG. 13. Stat3 is directly phosphorylated and activated by CaMKIIγ at Ser727. (A, i). Cell lysates from the indicated human leukemia cell lines were subjected to Western blots utilizing the indicated Stat3 antibodies. ii). Cell lysates from the same primary AML samples depicted in FIG. 1B were subjected to Western blots utilizing the indicated Stat3 antibodies. B). The IL-3 dependent TonB210.1 cells were deprived of IL-3 for 24 hours. The cells were then treated with the indicated compounds immediately prior to the addition of doxycycline. After an additional 24 hours cell lysates were harvested and subjected to Western blots with the indicated Stat3 antibodies. C). K562 cells were electroporated with a luciferase reporter driven by a Stat3 response element. The indicated concentrations of KN93 and the Stat 3 inhibitor, cucurbitacin I, were added and relative luciferase activity determined on cell lysates following 48 hours of culture. D, i) K562 cell lysates were immunoprecipitated with control IgG or a Stat3 antibody. […]
Transient transfections and luciferase assays. […] Stat3 transcriptional activity was determined in K562 cells transfected with the pSIE-tk-LUC luciferase reporter which harbors a Stat3 binding site ([…]). […]

[4] = system: autophosphorylated CaMKIIγ in K562 cells; assay: Western blot of CaMKIIγ autophosphorylation in K562 cells; assay type: cell-based, human; details: for activated, autophosphorylated CaMKIIγ level: gleevec 5 uM, ATRA five days
Procedure: as §2
FIG. 10. Inhibiting bcr-abl activity/expression inhibits CaMKIIγ activation. (A) Lysates from K562 cells undergoing growth arrest following treatment with gleevec (5 uM) for the indicated times were subjected to Western blots. (B) Lysates from TonB210.1 cells depleted of doxycycline for the indicated period of time were subjected to Western blots. (C) IL-3 dependent TonB210.1 cells were deprived of IL-3 for 24 hours (lane 1). The cells were then treated with the indicated compounds simultaneously with the addition of doxycycline (lanes 2-8). After 24 hours cell lysates were harvested and subjected to Western blots with the indicated CaMKII antibodies. (D) K562 cells were cultured for 48 hours with the indicated chemical inhibitors of specific signal transduction pathways. Cell lysates were harvested and subjected to Western blot analysis.
FIG. 12. CaMKII regulates multiple signal transduction pathways in myeloid cells. (A,B) Lysates from K562 cells cultured for the indicated time in KN93 were subjected to Western blots. (C) The K562 cells transduced as described in Materials and Methods with either (i) the doxycycline (DOX) inducible expression vector/transactivator harboring the full length, Lys^43 mutated, kinase dead CaMKIIγ (kdCaMKIIγ (Tet-on)) or (ii) the CaMKII shRNA generating plasmids, were cultured in liquid suspension in the presence or absence of DOX as indicated, and cell counts obtained after 48 hours. (D) Lysates from K562 cells transduced with the indicated vectors were subjected to Western blots utilizing the indicated antibodies. For lanes 2 and 4 doxycycline (DOX) treatment was for two days.
as §4

[5] = system: RAR transcriptional activity in HL60 cells; assay: RARE-driven luciferase reporter in HL60 cells; assay type: cell-based, human; details: six hours after treatment with ionomycin and ATRA
Procedure: FIG. 1. CaM kinase isoform expression in hematopoietic cells. (A) The activity of an ATRA-responsive luciferase reporter (βRARE-tk-Luc, 25 μg) was assessed in electroporated HL60 cells six hours after treatment with the indicated concentrations of ionomycin and ATRA. (B) The activity of the luciferase reporter (βRARE-tk-Luc, 25 μg) was assessed in HL60 six hours after treatment with KN62 (5 uM), KN93 (5 uM) and ATRA (1 uM). (C) Western blots were performed utilizing the indicated antibodies. F9 (column 6) is a mouse embryonal carcinoma cell line. BaF3 (column 7) is a cultured pre-B cell line. BM cells (column 8) are kit-ligand dependent normal murine hematopoietic precursors. PT67 murine fibroblasts individually transduced with either rat CaMKIIα, human CaMKIα or human CaMKIV (column 9) together with brain lysates (column 1) serve as positive controls for the respective antibodies. (D) CaMK assays were performed on HL-60 cell lysates immunoprecipitated with the indicated antibodies.
Transient transfections and luciferase assays. Murine PT67 fibroblasts were transfected utilizing calcium phosphate precipitation. All hematopoietic cell lines were transiently transfected by electroporation as previously detailed (Johnson, B. et al., Molecular and Cellular Biology 19:3372-3382 (1999)). In the transient transfections the LXSN vector (M28248) served as the expression vector for the wild type and site-directed mutagenized CaMKII and RARα coding region cDNAs. Human cDNA homologous to the coding region of rat CaMKIINα, a CaMKII inhibitory protein, was obtained by RT-PCR from HL60 RNA and cloned into the LXSN vector. The RA-responsive luciferase reporter harbors the RARE from the RARβ2 promoter as previously detailed (Si, J., and Collins, S. J., Blood 100:4401-4409 (2002)). The PON838 plasmid, a β-galactosidase reporter driven by the β-actin promoter, was used as an internal control to determine transfection efficiency for calculating relative luciferase activity.

[6] = system: autophosphorylated CaMKIIγ in NB4 cells; assay: Western blot of CaMKIIγ autophosphorylation in NB4 cells; assay type: cell-based, human; details: single agent, ATRA 1 μM, arsenic trioxide 1 uM
Procedure: as §1, §2, §3, §4

## O=C(O)c1ccc2c3c1cccc3c(=O)n1c3ccccc3nc21 [STO609]
[1]
  bcr-abl (tet/doxycycline) restored CaMKII autophosphorylation: not inhibited
K562 cells
  K562 cell proliferation: did not significantly inhibit; also recorded: minimal effects

## CCCCCCCCCCCCCC(=O)O[C@@H]1[C@@H](C)[C@@]2(O)[C@@H](C=C(CO)C[C@]3(O)C(=O)C(C)=C[C@@H]23)[C@@H]2C(C)(C)[C@]12OC(C)=O [TPA, phorbol myristate acetate]
[2]
  activated, autophosphorylated CaMKIIγ level: marked decrease

## CC(C)(O)/C=C/C(=O)[C@](C)(O)[C@H]1[C@H](O)C[C@@]2(C)[C@@H]3CC=C4[C@@H](C=C(O)C(=O)C4(C)C)[C@]3(C)C(=O)C[C@]12C [cucurbitacin I]
[3]
  Stat3 responsive reporter activity: inhibit

## Cc1ccc(NC(=O)c2ccc(CN3CCN(C)CC3)cc2)cc1Nc1nccc(-c2cccnc2)n1 [imatinib]
[4]
  total CaMKIIγ level: no significant change
  activated, autophosphorylated CaMKIIγ level: rapid, marked decrease
[4]; listed as gleevec
  activated, autophosphorylated CaMKIIγ level: downregulation
K562 cells
  K562 cell proliferation: proliferative arrest

## C[C@H](CCC(=O)O)C[C@H](C)C[C@H](C)C(=O)/C=C(\O)[C@H](C)C[C@H](C)C/C=C/[C@@H](C)[C@@H](O)[C@@H](C)[C@@H](O)C[C@@H]1CC[C@@](C)([C@H]2CC[C@@](C)([C@@H](C)O)O2)O1 [ionomycin]
[5]
  ATRA-induced activity of RARE-driven luciferase reporter: inhibited

## KN92
K562 cells
  K562 cell proliferation: did not significantly inhibit

## arsenic trioxide
[6]
  activated, autophosphorylated CaMKIIγ level: downregulation
